Laboratory results reported in US20060228694A1, “Methods to individualize combination therapy” (priority 2003, published 2006).

System: A549 cells
Test: In vitro cytotoxicity screening with median-effect (combination index) analysis of irinotecan and carboplatin
Format: cell-based
Conditions: single drug versus irinotecan plus carboplatin combination
Description: As shown, therapeutic agents A and B are tested individually and together at two different ratios for their ability to cause cell death or cell stasis. In these experiments cell death or stasis was assessed using the MTT (3-[4,5-dimethylthiazol-2-yl]-2,5-diphenyltetrazolium) assay described below. Briefly, the dye MTT is reduced by living cells, producing a measurable change in optical density that is correlated to cell viability.
Correlations between the concentration of therapeutic agents A and B, and the two different combination ratios (Y:Z and X:Y) are plotted against cytotoxicity. Cytotoxicity is calculated as a percentage of surviving cells based on the survival of untreated control cells. […] Once this correlation has been established, the cell survival or fraction affected (fa) is used as a surrogate for concentration in calculating the CI.
The Chou-Talalay median-effect method is preferred. The analysis utilizes an equation wherein the dose that causes a particular effect, fa, is given by: D=Dm[fa/(1−fa)]^1/m in which D is the dose of the drug used, fa is the fraction of cells affected by that dose, Dm is the dose for median effect signifying the potency and m is a coefficient representing the shape of the dose-effect curve (m is 1 for first order reactions). […]

| Compound | Concentration required to achieve a 90% cell kill on its own compared with the concentration required when combined at a non-antagonistic ratio |
| --- | --- |
| CCc1c2c(nc3ccc(OC(=O)N4CCC(N5CCCCC5)CC4)cc13)-c1cc3c(c(=O)n1C2)COC(=O)[C@]3(O)CC [irinotecan] | significantly higher |
| N.N.O=C([O-])C1(C(=O)[O-])CCC1.[Pt+2] [carboplatin] | significantly higher |
